Laboratory results from article PMC9081329, “Pharmacokinetics, Mass Balance, Excretion, and Tissue Distribution of Plasmalogen Precursor PPI-1011” (Frontiers in Cell and Developmental Biology, 2022).

Test: Single dose tissue distribution study (QWBA, LSC of blood and plasma)
Assay type: in vivo, Sprague-Dawley rats
Procedure: Six male rats were administered a single oral dose of [^14C]PPI-1011 at 100 mg/kg (200 μCi/kg) and one rat was sacrificed at each of the following time points after the administration of the dose: 8, 12, 18, 24, 48, or 168 h. Terminal blood was collected by cardiac puncture directly into tubes with K2EDTA, an aliquot was stored at 4°C until LSC was performed for radioactivity, while the remaining blood was processed to plasma and stored at −20°C until LSC. Following blood collection, the carcasses were frozen in a cold bath with hexanes and dry ice for at least 8 min and then dried and stored at −70°C for at least 5 h. The carcasses were transferred to a −20°C freezer for at least 12 h before embedding.
QWBA was used to determine radioactivity concentrations in the caecum (contents and mucosa), large intestine (contents and mucosa), small intestine (contents and mucosa), stomach (contents and mucosa), brain, choroid plexus, spinal cord, bone, skin, adrenal gland, pineal body, pituitary gland, thyroid gland, liver, kidney (cortex, medulla and whole kidney), urinary bladder (contents and wall), brown fat, white fat, eye (lens, uveal tract and whole eye), epididymis, prostate gland, testis, ovary, uterus, lung, exorbital lachrymal gland, Harderian gland, pancreas, salivary gland, skeletal muscle, myocardium, cardiac blood, bone marrow, lymph node, spleen, and thymus. As well, LSC was used to determine the total radioactivity in the whole blood and plasma.
The whole-body cryosectioning technique described by ([Ullberg, 1977]) was the basis for embedding and cryosectioning the rats assigned to this study. Each frozen carcass was shaved, and then the limbs and tail were removed prior to embedding. Chilled (4°C) 3% CMC (low viscosity) was utilized to provide a firm support of reinforced ice around each rat and for a secure attachment to the microtome stage. Upon thorough freezing of the embedding medium surrounding each rat, the frozen CMC block was removed from the freezing bath and four 3/8 inch holes were drilled into the block. One cryosection quality control standard (CQCS) was prepared with a known amount of radioactivity and at least 1 ml aliquots were added to each of the four drilled holes. CQCS data were utilized to evaluate the overall performance of the QWBA assay.
Each frozen rat was sagittally trimmed (50–100 μm) at −20°C until exposure of a few target tissues employing a Leica Cryomacrocut heavy-duty microtome (Leica Microsystems Inc.,). Disposable stainless steel Feather type H45L knives (Feather Safety Razor Co., Ltd.) were utilized for trimming and sectioning each frozen rat. Several thinner sections (50 μm) were discarded prior to obtaining multiple 50 μm sections at various cryosectioning levels for QWBA analysis. Upon the collection of at least 60 target tissues in multiple cryosectioning levels, the cryosections were kept in the Cryomacrocut cryochamber for a minimum of 18 h for dehydration depending upon the number of cryosections within the cryochamber. After dehydration was complete, the cryosections were transferred to ambient temperature for processing. Mounted whole-body cryosections and a set of 15 standards were sandwiched between a standard phosphor screen and an exposure cassette. All cryosections were exposed to the phosphor screen for 4-days in a cabinet protected with lead prior to scanning using a Typhoon PhosphorImager (Cytiva). MCID™ Analysis software (InterFocus Ltd.) was utilized to generate a calibration curve of the STD nominal concentrations (nCi/g) versus PhosphorImager response (counts/μm^2 minus background) by weighted (1/x) linear regression analysis ([Potchoiba et al., 1995]; [Potchoiba et al., 1998]). The linear regression curve was then utilized to determine the concentration (nCi/g) of total radioactivity in whole-body tissues and blood. Radioactivity concentrations were expressed as μg Eq/g based on the specific activity of the compound in the final dose formulations. […]

[1] = 12 h post single oral 100 mg/kg
[2] = 18 h post single oral 100 mg/kg
[3] = 24 h post single oral 100 mg/kg

For `CC/C=C\C/C=C\C/C=C\C/C=C\C/C=C\C/C=C\CCC(=O)O[C@H](CO[14CH2]CCCCCCCCCCCCCCC)COC(=O)CCCCC1CCSS1` (stereo partly shown) [[^14C]PPI-1011], the “Radioactivity concentration, Olfactory Bulb” value [1] was 2.01 μg equivalents/g, the “Radioactivity concentration, Pancreas” value [1] was 52.7 μg equivalents/g and the “Radioactivity concentration, Parotid Gland” value [1] was 30.4 μg equivalents/g. For the same molecule, the “Radioactivity concentration, Pineal Gland” value [1] was 12.1 μg equivalents/g, the “Radioactivity concentration, Pituitary Gland” value [1] was 21.2 μg equivalents/g and the “Radioactivity concentration, Preputial Gland” value [1] was 214 μg equivalents/g. For the same molecule, the “Radioactivity concentration, Prostate” value [1] was 11.8 μg equivalents/g, the “Radioactivity concentration, Renal Cortex” value [1] was 46.6 μg equivalents/g and the “Radioactivity concentration, Renal Medulla” value [1] was 53.2 μg equivalents/g. For the same molecule, the “Radioactivity concentration, Salivary Gland” value [1] was 31.4 μg equivalents/g, the “Radioactivity concentration, Seminal Vesicles” value [1] was 2.99 μg equivalents/g and the “Radioactivity concentration, Skin - Non-Pigmented” value [1] was 18.0 μg equivalents/g. The “Radioactivity concentration, Small Intestines” value [1] was 347 μg equivalents/g, the “Radioactivity concentration, Spinal Cord” value [1] was 2.76 μg equivalents/g and the “Radioactivity concentration, Spleen” value [1] was 111 μg equivalents/g. The “Radioactivity concentration, Stomach” value [1] was 22.9 μg equivalents/g, the “Radioactivity concentration, Testis” value [1] was 4.12 μg equivalents/g and the “Radioactivity concentration, Thalamus” value [1] was 2.31 μg equivalents/g. For the same molecule, the “Radioactivity concentration, Thymus” value [1] was 12.2 μg equivalents/g, the “Radioactivity concentration, Thyroid” value [1] was 43.1 μg equivalents/g and the “Radioactivity concentration, Whole Brain” value [1] was 2.48 μg equivalents/g. For the same molecule, the “Radioactivity concentration, Adipose - Brown” value [2] was 66.0 μg equivalents/g, the “Radioactivity concentration, Adipose - Brown (Vessel Wall)” value [2] was 94.2 μg equivalents/g and the “Radioactivity concentration, Adipose - Subcutaneous” value [2] was 73.9 μg equivalents/g. For the same molecule, the “Radioactivity concentration, Adipose - Visceral” value [2] was 75.6 μg equivalents/g, the “Radioactivity concentration, Adrenal Gland” value [2] was 185 μg equivalents/g and the “Radioactivity concentration, Bladder Wall” value [2] was 14.5 μg equivalents/g. For the same molecule, the “Radioactivity concentration, Blood - QWBA” value [2] was 9.62 μg equivalents/g, the “Radioactivity concentration, Bone Marrow” value [2] was 22.3 μg equivalents/g and the “Radioactivity concentration, Bone Surface” value [2] was 1.25 μg equivalents/g. For the same molecule, the “Radioactivity concentration, Cecum” value [2] was 177 μg equivalents/g, the “Radioactivity concentration, Cerebellum” value [2] was 3.03 μg equivalents/g and the “Radioactivity concentration, Cerebrum” value [2] was 2.49 μg equivalents/g. The “Radioactivity concentration, Choroid Plexus” value [2] was 12.8 μg equivalents/g, the “Radioactivity concentration, Colliculus” value [2] was 2.94 μg equivalents/g and the “Radioactivity concentration, Diaphragm” value [2] was 40.4 μg equivalents/g. The “Radioactivity concentration, Epididymis” value [2] was 67.7 μg equivalents/g, the “Radioactivity concentration, Esophagus” value [2] was 15.0 μg equivalents/g and the “Radioactivity concentration, Exorbital Lacrimal Gland” value [2] was 8.74 μg equivalents/g. The “Radioactivity concentration, Gastric Mucosa” value [2] was 70.1 μg equivalents/g, the “Radioactivity concentration, Harderian Gland” value [2] was 14.7 μg equivalents/g and the “Radioactivity concentration, Intra-Orbital Lacrimal Gland” value [2] was 8.91 μg equivalents/g. The “Radioactivity concentration, Kidney” value [2] was 36.1 μg equivalents/g, the “Radioactivity concentration, Large Intestines” value [2] was 154 μg equivalents/g and the “Radioactivity concentration, Liver” value [2] was 121 μg equivalents/g. The “Radioactivity concentration, Lung” value [2] was 45.4 μg equivalents/g, the “Radioactivity concentration, Lymph Node” value [2] was 22.5 μg equivalents/g and the “Radioactivity concentration, Medulla Oblongata” value [2] was 2.23 μg equivalents/g. The “Radioactivity concentration, Muscle” value [2] was 9.63 μg equivalents/g, the “Radioactivity concentration, Myocardium” value [2] was 42.4 μg equivalents/g and the “Radioactivity concentration, Nasal Turbinates” value [2] was 6.43 μg equivalents/g. For the same molecule, the “Radioactivity concentration, Ocular - Uveal Tract” value [2] was 5.32 μg equivalents/g, the “Radioactivity concentration, Ocular - Whole Eye” value [2] was 1.65 μg equivalents/g and the “Radioactivity concentration, Olfactory Bulb” value [2] was 1.75 μg equivalents/g. The “Radioactivity concentration, Pancreas” value [2] was 39.8 μg equivalents/g, the “Radioactivity concentration, Parotid Gland” value [2] was 35.2 μg equivalents/g and the “Radioactivity concentration, Pineal Gland” value [2] was 16.2 μg equivalents/g. For the same molecule, the “Radioactivity concentration, Pituitary Gland” value [2] was 22.0 μg equivalents/g, the “Radioactivity concentration, Preputial Gland” value [2] was 78.0 μg equivalents/g and the “Radioactivity concentration, Prostate” value [2] was 28.0 μg equivalents/g. The “Radioactivity concentration, Renal Cortex” value [2] was 38.1 μg equivalents/g, the “Radioactivity concentration, Renal Medulla” value [2] was 23.0 μg equivalents/g and the “Radioactivity concentration, Salivary Gland” value [2] was 28.8 μg equivalents/g. The “Radioactivity concentration, Skin - Non-Pigmented” value [2] was 12.0 μg equivalents/g, the “Radioactivity concentration, Small Intestines” value [2] was 239 μg equivalents/g and the “Radioactivity concentration, Spinal Cord” value [2] was 3.20 μg equivalents/g. For the same molecule, the “Radioactivity concentration, Spleen” value [2] was 71.3 μg equivalents/g, the “Radioactivity concentration, Stomach” value [2] was 21.6 μg equivalents/g and the “Radioactivity concentration, Testis” value [2] was 5.09 μg equivalents/g. For the same molecule, the “Radioactivity concentration, Thalamus” value [2] was 2.20 μg equivalents/g, the “Radioactivity concentration, Thymus” value [2] was 11.8 μg equivalents/g and the “Radioactivity concentration, Thyroid” value [2] was 38.5 μg equivalents/g. For the same molecule, the “Radioactivity concentration, Whole Brain” value [2] was 2.70 μg equivalents/g, the “Radioactivity concentration, Adipose - Brown” value [3] was 133 μg equivalents/g and the “Radioactivity concentration, Adipose - Brown (Vessel Wall)” value [3] was 110 μg equivalents/g. The “Radioactivity concentration, Adipose - Subcutaneous” value [3] was 70.1 μg equivalents/g, the “Radioactivity concentration, Adipose - Visceral” value [3] was 71.6 μg equivalents/g and the “Radioactivity concentration, Adrenal Gland” value [3] was 155 μg equivalents/g. The “Radioactivity concentration, Bladder Wall” value [3] was 7.69 μg equivalents/g, the “Radioactivity concentration, Blood - QWBA” value [3] was 5.62 μg equivalents/g and the “Radioactivity concentration, Bone Marrow” value [3] was 18.3 μg equivalents/g. For the same molecule, the “Radioactivity concentration, Bone Surface” value [3] was 0.513 μg equivalents/g, the “Radioactivity concentration, Cecum” value [3] was 231 μg equivalents/g and the “Radioactivity concentration, Cerebellum” value [3] was 2.08 μg equivalents/g. The “Radioactivity concentration, Cerebrum” value [3] was 1.61 μg equivalents/g.
